These substances were tested on endothelium-free isolated blood vessels. Conditions: concentration 10^−6 M; blood vessel rings contracted with noradrenalin 3×10^−7 M; 37° C.
Protocol: Activity of manganese (manganese gluconate, manganese chloride and manganese carbonate) in an ex vivo model of endothelium-free isolated blood vessels:
Blood vessel rings (or sections) were maintained in a 20 ml tank filled with survival fluid (Krebs Henseleit liquid) maintained at a temperature of 37° C. and oxygenated with a mixture of 95% oxygen and 5% CO2.
The variations in the tension of the blood vessel were then recorded with an initial preloading of several […].
The rings were contracted with noradrenalin at a concentration of 3×10^−7 M. On each preparation, the effect of the test products was evaluated at increasing and cumulative concentrations of from 3×10^−8 M to 10^−5 M.

| Substance | % of relaxation [%] |
| --- | --- |
| manganese chloride [MnCl2] | 100 |
| manganese gluconate | 100 |
| manganese carbonate [MnCO3] | 100 |

Source: patent US20040137022A1, “Manganese compositions for treating skin vascular tissue and combating skin pallor” (SOCIETE L'OREAL S.A., priority 2000, published 2004)
